Publication PMC5814754, “Quantitative, Wide-Spectrum Kinase Profiling in Live Cells for Assessing the Effect of Cellular ATP on Target Engagement” (Cell Chemical Biology, 2018)

Assays:
Test in all cases: NanoBRET single-dose fractional occupancy profiling of kinase/Nluc library in live HEK293 cells (Table S1)
Type in all cases: binding
Parameters in all cases: Occupancy, % Replicate 1 / Occupancy, % Replicate 2: unit of the concentration uncertain
178 full-length kinases [1] = biological target: 178 full-length kinases (Homo sapiens, UniProt P31749); conditions: AKT1, Nluc C, probe 5 at 1 (unit uncertain)
178 full-length kinases [2] = biological target: 178 full-length kinases (Homo sapiens, UniProt P51817); conditions: PRKX, Nluc C, probe 5 at 1 (unit uncertain)
178 full-length kinases [3] = biological target: 178 full-length kinases (Homo sapiens, UniProt Q08881); conditions: ITK, Nluc N, probe 5 at 0.01 (unit uncertain)
178 full-length kinases [4] = biological target: 178 full-length kinases (Homo sapiens, UniProt P50750); conditions: CDK9, Nluc N, probe 1 at 0.5 (unit uncertain)
178 full-length kinases [5] = biological target: 178 full-length kinases (Homo sapiens, UniProt Q9NYY3); conditions: PLK2, Nluc N, probe 5 at 1 (unit uncertain)
178 full-length kinases [6] = biological target: 178 full-length kinases (Homo sapiens, UniProt O75676); conditions: RPS6KA4 (NP_001287731), Nluc orientation N, probe 5 at 0.1 (unit uncertain); replicate 1
178 full-length kinases [7] = biological target: 178 full-length kinases (Homo sapiens, UniProt Q8IWQ3); conditions: BRSK2, Nluc N, probe 5 at 0.5 (unit uncertain)
178 full-length kinases [8] = biological target: 178 full-length kinases (Homo sapiens, UniProt Q8IVW4); conditions: CDKL3, Nluc N, probe 1 at 0.05 (unit uncertain)
178 full-length kinases [9] = biological target: 178 full-length kinases (Homo sapiens, UniProt Q02779); conditions: MAP3K10, Nluc N, probe 5 at 1 (unit uncertain)
178 full-length kinases [10] = biological target: 178 full-length kinases (Homo sapiens, UniProt Q9H0K1); conditions: SNF1LK2 (NP_056006), Nluc orientation N, probe 6 at 0.1 (unit uncertain)
178 full-length kinases [11] = biological target: 178 full-length kinases (Homo sapiens, UniProt Q15831); conditions: STK11 (NP_000446), Nluc orientation N, probe 5 at 1 (unit uncertain)
178 full-length kinases [12] = biological target: 178 full-length kinases (Homo sapiens, UniProt Q9BVS4); conditions: RIOK2, Nluc N, probe 5 at 1 (unit uncertain)
178 full-length kinases [13] = biological target: 178 full-length kinases (Homo sapiens, UniProt Q8WU08); conditions: STK32A (NP_001106195), Nluc orientation N, probe 5 at 1 (unit uncertain); replicate 2
178 full-length kinases [14] = biological target: 178 full-length kinases (Homo sapiens, UniProt P19784); conditions: CSNK2A2, Nluc C, probe 5 at 1 (unit uncertain)
178 full-length kinases [15] = biological target: 178 full-length kinases (Homo sapiens, UniProt Q8IYT8); conditions: ULK2 (NP_001136082), Nluc orientation N, probe 5 at 1 (unit uncertain)
178 full-length kinases [16] = biological target: 178 full-length kinases (Homo sapiens, UniProt Q7KZI7); conditions: MARK2, Nluc N, probe 5 at 1 (unit uncertain)
178 full-length kinases [17] = biological target: 178 full-length kinases (Homo sapiens, UniProt P31751); conditions: AKT2, Nluc C, probe 5 at 1 (unit uncertain)
178 full-length kinases [18] = biological target: 178 full-length kinases (Homo sapiens, UniProt P52333); conditions: JAK3, Nluc C, probe 5 at 1 (unit uncertain)

Chain of 178 full-length kinases (Homo sapiens, UniProt Q9H0K1) (Q9H0K1 whole entry): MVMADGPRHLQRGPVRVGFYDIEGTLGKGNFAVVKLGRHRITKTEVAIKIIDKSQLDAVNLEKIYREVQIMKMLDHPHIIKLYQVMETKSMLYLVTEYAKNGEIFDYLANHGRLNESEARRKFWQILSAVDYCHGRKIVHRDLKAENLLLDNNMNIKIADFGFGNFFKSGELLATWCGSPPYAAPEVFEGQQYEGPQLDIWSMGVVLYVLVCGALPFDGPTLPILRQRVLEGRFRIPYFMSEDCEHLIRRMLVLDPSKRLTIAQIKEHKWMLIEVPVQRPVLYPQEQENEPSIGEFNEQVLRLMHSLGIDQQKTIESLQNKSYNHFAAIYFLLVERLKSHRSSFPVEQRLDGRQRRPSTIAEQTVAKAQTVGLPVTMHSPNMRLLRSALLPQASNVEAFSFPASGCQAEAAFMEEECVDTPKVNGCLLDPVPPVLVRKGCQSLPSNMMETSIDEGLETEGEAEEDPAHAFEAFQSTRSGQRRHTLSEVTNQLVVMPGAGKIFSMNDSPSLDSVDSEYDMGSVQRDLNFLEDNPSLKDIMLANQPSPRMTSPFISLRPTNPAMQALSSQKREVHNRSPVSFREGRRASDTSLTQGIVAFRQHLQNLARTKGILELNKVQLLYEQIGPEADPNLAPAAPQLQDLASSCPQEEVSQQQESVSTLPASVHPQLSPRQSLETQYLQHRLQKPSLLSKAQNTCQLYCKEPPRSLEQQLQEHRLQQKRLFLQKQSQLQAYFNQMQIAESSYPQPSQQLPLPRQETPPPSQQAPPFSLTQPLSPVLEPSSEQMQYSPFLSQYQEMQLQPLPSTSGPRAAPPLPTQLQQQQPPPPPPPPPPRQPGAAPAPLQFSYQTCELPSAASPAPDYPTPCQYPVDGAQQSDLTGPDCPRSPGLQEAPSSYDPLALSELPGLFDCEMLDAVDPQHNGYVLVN
Chain of 178 full-length kinases (Homo sapiens, UniProt Q8IVW4) (Q8IVW4 whole entry): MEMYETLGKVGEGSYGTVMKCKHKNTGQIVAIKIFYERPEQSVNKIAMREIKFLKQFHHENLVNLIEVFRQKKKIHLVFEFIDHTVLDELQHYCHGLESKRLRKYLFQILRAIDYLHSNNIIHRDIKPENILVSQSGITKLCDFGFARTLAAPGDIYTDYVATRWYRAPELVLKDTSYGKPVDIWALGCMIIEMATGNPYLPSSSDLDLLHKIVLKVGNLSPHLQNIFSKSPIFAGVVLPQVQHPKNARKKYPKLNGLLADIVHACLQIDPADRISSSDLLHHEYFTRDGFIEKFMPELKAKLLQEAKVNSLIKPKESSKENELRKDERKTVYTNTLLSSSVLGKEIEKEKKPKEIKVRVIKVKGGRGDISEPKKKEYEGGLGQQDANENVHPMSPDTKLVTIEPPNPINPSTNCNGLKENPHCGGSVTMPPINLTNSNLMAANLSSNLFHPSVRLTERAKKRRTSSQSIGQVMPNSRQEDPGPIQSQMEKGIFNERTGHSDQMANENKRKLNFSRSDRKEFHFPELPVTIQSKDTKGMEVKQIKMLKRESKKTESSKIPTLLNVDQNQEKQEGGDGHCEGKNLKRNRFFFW
Chain of 178 full-length kinases (Homo sapiens, UniProt Q02779) (Q02779 whole entry): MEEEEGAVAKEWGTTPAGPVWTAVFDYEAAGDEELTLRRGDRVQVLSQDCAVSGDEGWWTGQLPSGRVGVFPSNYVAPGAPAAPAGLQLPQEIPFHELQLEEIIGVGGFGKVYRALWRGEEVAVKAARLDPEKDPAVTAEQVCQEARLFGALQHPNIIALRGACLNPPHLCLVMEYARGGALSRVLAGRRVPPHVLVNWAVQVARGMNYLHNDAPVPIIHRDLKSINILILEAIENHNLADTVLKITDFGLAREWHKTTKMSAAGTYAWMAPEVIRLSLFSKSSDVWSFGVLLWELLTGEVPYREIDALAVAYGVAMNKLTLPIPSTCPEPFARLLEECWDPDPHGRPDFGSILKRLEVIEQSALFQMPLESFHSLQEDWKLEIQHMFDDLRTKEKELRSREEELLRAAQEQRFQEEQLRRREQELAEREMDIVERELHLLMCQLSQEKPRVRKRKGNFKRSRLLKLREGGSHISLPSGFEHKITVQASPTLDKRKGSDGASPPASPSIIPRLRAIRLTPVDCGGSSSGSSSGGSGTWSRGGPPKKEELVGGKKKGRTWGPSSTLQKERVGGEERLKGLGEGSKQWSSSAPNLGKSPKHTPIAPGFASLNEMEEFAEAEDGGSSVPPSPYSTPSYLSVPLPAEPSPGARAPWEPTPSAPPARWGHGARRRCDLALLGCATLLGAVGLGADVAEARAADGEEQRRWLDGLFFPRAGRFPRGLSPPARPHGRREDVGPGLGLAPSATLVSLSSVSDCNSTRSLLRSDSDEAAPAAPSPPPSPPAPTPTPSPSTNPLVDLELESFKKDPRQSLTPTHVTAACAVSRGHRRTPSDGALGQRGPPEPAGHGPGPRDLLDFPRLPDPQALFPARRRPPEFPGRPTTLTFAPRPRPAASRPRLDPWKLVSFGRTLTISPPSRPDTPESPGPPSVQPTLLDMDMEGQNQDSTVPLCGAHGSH
Chain of 178 full-length kinases (Homo sapiens, UniProt Q8IYT8) (Q8IYT8 whole entry): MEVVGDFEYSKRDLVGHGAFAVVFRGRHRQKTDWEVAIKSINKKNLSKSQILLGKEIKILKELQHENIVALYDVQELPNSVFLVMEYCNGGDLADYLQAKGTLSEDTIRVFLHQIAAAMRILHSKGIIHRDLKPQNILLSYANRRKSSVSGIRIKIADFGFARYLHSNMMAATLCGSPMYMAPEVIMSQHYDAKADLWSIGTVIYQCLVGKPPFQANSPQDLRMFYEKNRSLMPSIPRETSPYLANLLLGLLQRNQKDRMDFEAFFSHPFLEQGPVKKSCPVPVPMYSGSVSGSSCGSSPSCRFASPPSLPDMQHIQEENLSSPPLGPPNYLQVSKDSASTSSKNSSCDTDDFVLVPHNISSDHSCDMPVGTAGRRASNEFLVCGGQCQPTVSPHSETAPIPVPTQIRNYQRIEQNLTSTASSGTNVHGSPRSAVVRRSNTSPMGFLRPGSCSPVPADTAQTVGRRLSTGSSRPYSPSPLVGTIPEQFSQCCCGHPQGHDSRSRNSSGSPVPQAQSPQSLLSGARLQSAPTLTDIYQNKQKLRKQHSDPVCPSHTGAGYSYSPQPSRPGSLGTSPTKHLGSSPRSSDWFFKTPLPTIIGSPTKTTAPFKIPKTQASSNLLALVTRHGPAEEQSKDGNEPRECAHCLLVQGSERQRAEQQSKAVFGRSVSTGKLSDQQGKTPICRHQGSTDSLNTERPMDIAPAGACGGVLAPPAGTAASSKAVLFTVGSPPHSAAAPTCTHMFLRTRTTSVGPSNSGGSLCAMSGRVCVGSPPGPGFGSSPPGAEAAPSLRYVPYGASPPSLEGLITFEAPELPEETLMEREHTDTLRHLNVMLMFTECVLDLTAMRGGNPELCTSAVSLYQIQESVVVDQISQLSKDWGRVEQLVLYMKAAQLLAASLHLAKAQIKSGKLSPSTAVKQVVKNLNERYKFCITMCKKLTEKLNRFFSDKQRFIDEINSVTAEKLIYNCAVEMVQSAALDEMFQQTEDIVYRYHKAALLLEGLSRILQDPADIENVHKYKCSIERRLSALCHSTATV
Chain of 178 full-length kinases (Homo sapiens, UniProt P19784) (P19784 whole entry): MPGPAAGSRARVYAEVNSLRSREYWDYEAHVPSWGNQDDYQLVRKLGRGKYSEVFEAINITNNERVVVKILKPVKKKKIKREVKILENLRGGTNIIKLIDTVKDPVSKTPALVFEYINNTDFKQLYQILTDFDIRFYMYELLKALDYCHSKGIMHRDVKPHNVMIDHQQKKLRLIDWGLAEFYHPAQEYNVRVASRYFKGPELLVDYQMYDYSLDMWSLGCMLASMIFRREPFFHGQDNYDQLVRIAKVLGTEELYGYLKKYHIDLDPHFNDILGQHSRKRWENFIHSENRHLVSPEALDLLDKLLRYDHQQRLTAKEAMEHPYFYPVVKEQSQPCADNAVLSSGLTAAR
Chain of 178 full-length kinases (Homo sapiens, UniProt Q15831) (Q15831 whole entry): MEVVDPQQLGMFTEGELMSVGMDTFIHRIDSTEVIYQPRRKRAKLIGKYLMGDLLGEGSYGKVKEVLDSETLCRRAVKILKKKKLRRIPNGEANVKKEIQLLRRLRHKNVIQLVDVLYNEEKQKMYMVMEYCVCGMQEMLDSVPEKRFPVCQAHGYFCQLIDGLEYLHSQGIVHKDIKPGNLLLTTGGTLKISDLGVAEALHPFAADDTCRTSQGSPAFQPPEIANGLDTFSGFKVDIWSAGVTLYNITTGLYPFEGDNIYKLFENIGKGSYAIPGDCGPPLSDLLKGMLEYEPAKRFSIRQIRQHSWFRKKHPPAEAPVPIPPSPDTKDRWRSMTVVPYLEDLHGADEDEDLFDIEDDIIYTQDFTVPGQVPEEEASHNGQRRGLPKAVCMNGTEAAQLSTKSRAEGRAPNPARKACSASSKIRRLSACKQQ
Chain of 178 full-length kinases (Homo sapiens, UniProt Q9BVS4) (Q9BVS4 whole entry): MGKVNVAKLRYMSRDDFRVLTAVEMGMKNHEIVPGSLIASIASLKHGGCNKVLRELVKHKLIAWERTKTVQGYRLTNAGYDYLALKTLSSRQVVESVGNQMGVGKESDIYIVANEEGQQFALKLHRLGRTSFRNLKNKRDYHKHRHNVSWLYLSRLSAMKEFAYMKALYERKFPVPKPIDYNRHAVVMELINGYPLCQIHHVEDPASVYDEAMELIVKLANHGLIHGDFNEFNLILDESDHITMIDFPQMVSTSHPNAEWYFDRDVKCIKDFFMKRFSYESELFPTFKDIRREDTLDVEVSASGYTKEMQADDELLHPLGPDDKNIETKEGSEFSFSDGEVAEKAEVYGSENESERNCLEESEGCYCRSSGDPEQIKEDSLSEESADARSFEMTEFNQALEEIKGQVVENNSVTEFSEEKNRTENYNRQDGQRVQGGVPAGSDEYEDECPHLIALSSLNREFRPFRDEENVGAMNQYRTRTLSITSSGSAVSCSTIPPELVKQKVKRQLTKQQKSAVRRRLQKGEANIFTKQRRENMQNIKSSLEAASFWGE

C[C@@H](Oc1cc(-c2cnn(C3CCNCC3)c2)cnc1N)c1c(Cl)ccc(F)c1Cl [Crizotinib]
No Binding: Occupancy, % Replicate 1 (178 full-length kinases [1]) | Occupancy, % Replicate 2 (178 full-length kinases [1]) | Occupancy, % Replicate 1 (178 full-length kinases [2]) | Occupancy, % Replicate 2 (178 full-length kinases [2]) | Occupancy, % Replicate 1 (178 full-length kinases [3]) | Occupancy, % Replicate 1 (178 full-length kinases [4]) | Occupancy, % Replicate 2 (178 full-length kinases [4]) | Occupancy, % Replicate 1 (178 full-length kinases [5]) | Occupancy, % Replicate 2 (178 full-length kinases [5]) | Occupancy, % Replicate 1 (178 full-length kinases [6]) | Occupancy, % Replicate 2 (178 full-length kinases [7]) | Occupancy, % Replicate 1 (178 full-length kinases [8]) | Occupancy, % Replicate 2 (178 full-length kinases [8]) | Occupancy, % Replicate 1 (178 full-length kinases [9]) | Occupancy, % Replicate 2 (178 full-length kinases [9]) | Occupancy, % Replicate 1 (178 full-length kinases [10]; replicate 1) | Occupancy, % Replicate 2 (178 full-length kinases [10]; replicate 2) | Occupancy, % Replicate 1 (178 full-length kinases [11]; replicate 1) | Occupancy, % Replicate 2 (178 full-length kinases [11]; replicate 2) | Occupancy, % Replicate 1 (178 full-length kinases [12]) | Occupancy, % Replicate 2 (178 full-length kinases [12]) | Occupancy, % Replicate 2 (178 full-length kinases [13]) | Occupancy, % Replicate 1 (178 full-length kinases [14]) | Occupancy, % Replicate 2 (178 full-length kinases [14]) | Occupancy, % Replicate 1 (178 full-length kinases [15]; replicate 1) | Occupancy, % Replicate 2 (178 full-length kinases [15]; replicate 2) | Occupancy, % Replicate 2 (178 full-length kinases [16]) | Occupancy, % Replicate 1 (178 full-length kinases [17]) | Occupancy, % Replicate 2 (178 full-length kinases [17]) | Occupancy, % Replicate 2 (178 full-length kinases [18])
